Measurements as given in US10519207B2, “Compositions and methods for treating opioid tolerance” (priority 2015, dated 2019).

Assays:
[1] = test system: IL-10 mRNA; test: qPCR of IL-10 mRNA in vlPAG; format: in vivo, rat; conditions: chronic morphine with or without XPro1595
Description: (§1) Gene expression is reported as the ratio of the gene of interest to Gapdh, and are normalized to the Vehicle+Saline condition. Changes in mRNA between groups were assessed using an ANOVA on ranks (Kruskal-Wallis), and Mann Whitney U post-hoc comparisons (SPSS). Data are expressed as median; p<0.05 was considered significant.

[2] = test system: EAAC1 mRNA; test: In situ hybridization of neuronal EAAC1 mRNA in caudal vlPAG; format: in vivo, rat
[3] = test system: IL-6 mRNA; test: qPCR of IL-6 mRNA in vlPAG; format: in vivo, rat; conditions: chronic morphine with or without XPro1595
Description: as §1

[4] = test system: TNF mRNA; test: qPCR of TNF mRNA in vlPAG; format: in vivo, rat; conditions: chronic morphine with or without XPro1595
Description: as §1

[5] = molecular target: T1, solTNF (Mus musculus, UniProt P06804); conditions: systemic delivery; cited from earlier work
T1 construct: There are two active forms of TNF, soluble-TNF (solTNF) and transmembrane-TNF (tmTNF); host or cells: endogenous TNF of EAE animals
T1 sequence (P06804 80-235 limits assumed): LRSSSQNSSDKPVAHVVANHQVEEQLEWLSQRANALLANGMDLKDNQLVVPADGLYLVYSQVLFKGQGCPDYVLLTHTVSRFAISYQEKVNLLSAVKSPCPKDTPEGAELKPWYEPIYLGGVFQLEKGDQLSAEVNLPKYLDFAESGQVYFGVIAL

[6] = test system: TNF; conditions: morphine tolerant animals; cited from earlier work
Chain of TNF (P16599 80-235 limits assumed): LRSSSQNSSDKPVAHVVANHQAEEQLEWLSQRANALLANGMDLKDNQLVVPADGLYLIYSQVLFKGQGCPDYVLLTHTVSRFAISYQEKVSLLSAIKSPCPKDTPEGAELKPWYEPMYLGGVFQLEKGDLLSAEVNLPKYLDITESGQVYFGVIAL

[7] = molecular target: T2, soluble TNF (solTNF) (Rattus norvegicus, UniProt P16599); format: in vivo; conditions: 24 and 72 hours after intra-PAG administration
T2 construct: soluble TNF which is formed after cleavage of tmTNF by ADAM17/TNF-αlpha Converting Enzyme (TACE); from tissue; host or cells: living rat, ventrolateral periaqueductal gray (vlPAG) / CNS
T2 sequence (P16599 80-235): as the sequence (P16599 80-235 limits assumed) above
Description: Male Sprague Dawley rats (250-350 g; Charles River; MA) were pair-housed on a 12:12 hour light:dark cycle (lights on at 7:00 am) with ad libitum access to food and water. The Institutional Animal Care and Use Committee at Georgia State University approved all studies.
Rats were implanted with bilateral cannula aimed at the ventrolateral PAG (vlPAG) and received bilateral infusions of lenti-DN-TNF or lenti-GFP while under surgical anesthesia.

CN1CC[C@]23c4c5ccc(O)c4O[C@H]2[C@@H](O)C=C[C@H]3[C@H]1C5 [morphine]
vlPAG IL-10 mRNA [1]: No significant change | vlPAG EAAC1 mRNA expression ([2]; systemic morphine for 3 days): No significant effect | vlPAG IL-6 mRNA [3]: No significant change | vlPAG TNF gene expression [4]: not statistically significant

etanercept
outcome in EAE [5]: neither therapeutic nor neuroprotective | effect on acute morphine inhibition of tail flick reflex [6]: restores the ability of morphine to acutely inhibit tail flick reflex

lipopolysaccharide [LPS]
vlPAG EAAC1 mRNA ([2]; chronic vlPAG microinfusions of LPS): did not alter | baseline paw withdrawal latencies [7]: no effect
